Patent publication US20240342071A1, “HEXAPEPTIDE,COSMETIC COMPOSITION OR PHARMACEUTICAL COMPOSITION CONTAINING SAME, AND USE OF HEXAPEPTIDE” (SHENZHEN WINKEY TECHNOLOGY CO., LTD, priority 2021, published 2024)

Experiments:
HaCaT cells = assay: Cell viability assay (MTT) on HaCaT cells; format: cell-based, Human; conditions: 72 h; for toxicity to HaCaT cells: 100 ppm, compared with the control group
Excerpt: Phosphate-buffered saline (PBS) (Gibco), thiazolyl blue (MTT) (Sigma), dimethyl sulfoxide (DMSO) (Sigma), a high glucose culture medium (DMEM) (Gibco), and fetal bovine serum (Gibco).
Human keratinocytes (HaCaT) were purchased from the Kunming Cell Bank of China Center for Type Culture Collection under the Chinese Academy of Sciences.
The peptide Ac-Phe-Phe-Trp-Phe-His-Val-NH2 (hereinafter referred to as the reference peptide) at a test concentration of 1 ppm, 10 ppm, 50 ppm, and 100 ppm respectively; • the peptide (5) at a test concentration of 1 ppm, 10 ppm, 50 ppm, and 100 ppm, respectively; • the peptide (11) at a test concentration of 1 ppm, 10 ppm, 50 ppm, and 100 ppm, respectively; • the peptide (17) at a test concentration of 1 ppm, 10 ppm, 50 ppm, and 100 ppm, respectively. Control group: • PBS blank control.
The frozen HaCaT cells were cultured and passaged at a ratio of 1:2 to about the 5th generation, and the cells in better growth were selected as experiment subjects.
The cells were inoculated in a 96-well plate at 2000 cells/well. After the cells adhered to the wall, samples of the drug groups and the control group were added according to the multiple dilution method, supplemented with a culture medium to 200 μL, and incubated in a 5% CO2 incubator at 37° C. for 72 h.
Then 22 μL 5 mg/ml MTT was added to each well and the incubation was continued in the 5% CO2 incubator at 37° C. for 4 h. The original solution was removed and 150 μL/well DMSO was added. After 5 min, the microplate reader was used to read the reference OD values at 490 nm and 630 nm wavelengths.
The MTT assay is a method of detecting cell survival and growth. The control group is taken as a reference value. Four dosage concentrations were set from high to low for each sample, and cell viability assays were carried out on HaCaT cells. The measured OD values are directly proportional to cell viability.

TNF-α = assay: Anti-inflammatory cell assay: TNF-α ELISA in LPS-stimulated RAW 264.7 cells; format: cell-based, Mouse; conditions: 200 ng/mL LPS; for effect on TNF-α expression compared with the positive drug dexamethasone: 100 ppm peptide vs 50 ng/ml dexamethasone, RAW 264.7; for TNF-α expression: 100 ppm, RAW 264.7, 48 h, vs LPS alone
Experimental: (§1) Fetal bovine serum, DMEM culture medium, penicillin, streptomycin, an IL-6 ELISA kit and a TNF-α ELISA kit.
(§2) Mouse monocyte macrophages (RAW 264.7 cells).
(§3) 100 ppm of the reference peptide, 100 ppm of the peptide (5), 100 ppm of the peptide (11), and 100 ppm of the peptide (17); the peptides were dissolved with a PBS solution, respectively.
(§4) The frozen RAW 264.7 cells were cultured and passaged at a ratio of 1:2 to about the 5th generation, and the cells in better growth were selected as experiment subjects.
(§5) A cell suspension was diluted properly and inoculated on a 6-well plate at 100,000 cells/well. When the cells were about 80% confluent, an LPS-stimulated inflammation model was established. A blank control group (control), a LPS group, a dexamethasone group (DXM), and polypeptide groups were set. The blank control group was supplemented with the culture medium to 1000 μL; in the LPS group, 200 ng/mL LPS was added, and supplemented with the culture medium to 1000 μL; in the dexamethasone group, 200 ng/mL LPS and 50 ng/ml dexamethasone were added, and supplemented with the culture medium to 1000 μL; in the polypeptide groups, 200 ng/mL LPS and a polypeptide were added, and supplemented with culture medium to 1000 μL (the final test concentration of the polypeptide was 100 ppm). The above groups were further incubated in a 5% CO2 incubator at 37° C. for 48 h. The solutions were centrifuged at 3000 rpm for 15 min, in each of which a cell supernatant was collected to obtain a sample liquid. Operations were performed according to the instructions of the IL-6 and TNF-α ELISA kits.
(§6) Inflammatory factors such as TNF-α and IL-6 can cause the body's immune overresponse, leading to skin ulcers, redness and other problems. Therefore, inhibiting inflammatory factors such as TNF-α and IL-6 secreted by monocytes in the skin can achieve anti-inflammatory and repairing effects. An inflammation model was established by stimulating RAW 264.7 cells with 200 ng/mL LPS to investigate the anti-inflammatory and repairing effects of the peptides of the present invention.

IL-6 = assay: Anti-inflammatory cell assay: IL-6 ELISA in LPS-stimulated RAW 264.7 cells; format: cell-based, Mouse; conditions: 100 ppm, 200 ng/mL LPS, RAW 264.7, 48 h, vs LPS alone
Experimental: as §1, §2, §3, §4, §5, §6

Substance | toxicity to HaCaT cells (HaCaT cells) | effect on TNF-α expression compared with the positive drug dexamethasone (TNF-α) | TNF-α expression (TNF-α) | expression of IL-6 (IL-6) | proliferation effects on cells (HaCaT cells; HaCaT, 50 ppm)
Ac-FFWFHG-NH2 [peptide (17), Ac-Phe-Phe-Trp-Phe-His-Gly-NH2] | no toxicity | equivalent to that of the positive drug dexamethasone, or having even more excellent effects than dexamethasone | significantly down-regulated | significantly down-regulated | 
Ac-FFWFHL-NH2 [peptide (11), Ac-Phe-Phe-Trp-Phe-His-Leu-NH2] | no toxicity | equivalent to that of the positive drug dexamethasone, or having even more excellent effects than dexamethasone | significantly down-regulated | significantly down-regulated | 
Ac-FFWFHV-NH2 [reference peptide, Ac-Phe-Phe-Trp-Phe-His-Val-NH2, reference compound] | no toxicity | equivalent to that of the positive drug dexamethasone, or having even more excellent effects than dexamethasone | significantly down-regulated | significantly down-regulated | significant proliferation effects
Ac-FFWFKV-NH2 [peptide (5), Ac-Phe-Phe-Trp-Phe-Lys-Val-NH2] | no toxicity |  |  |  | 
